Assay results reported in ChEMBL document CHEMBL3046005, “New Insecticidal 4-Acetoxy-2-alkenylquinolines” (1996).

How the values were obtained:
Type in all cases: functional
[1] = test system: Bombyx mori; assay: Insecticidal activity against Bombyx mori larvae assessed as mortality at 2.5 ug administered topically measured after 48 hr
[2] = test system: Bombyx mori; assay: Insecticidal activity against Bombyx mori larvae assessed as mortality at 10 ug administered topically measured after 48 hr
[3] = test system: Bombyx mori; assay: Insecticidal activity against Bombyx mori larvae assessed as mortality at 40 ug administered topically measured after 48 hr
[4] = test system: Plutella xylostella; assay: Insecticidal activity against Plutella xylostella (diamondback moth) larvae assessed as mortality at 1000 ppm by leaf spray method
[5] = test system: Laodelphax striatellus; assay: Insecticidal activity against Laodelphax striatella (small brown planthopper) larvae assessed as mortality at 500 ppm by leaf spray method
[6] = test system: Tetranychus urticae; assay: Insecticidal activity against Tetranychus urticae (two-spotted spider mite) eggs assessed as mortality at 1000 ppm by leaf spray method
[7] = test system: Tetranychus urticae; assay: Insecticidal activity against Tetranychus urticae (two-spotted spider mite) eggs assessed as mortality at 250 ppm by leaf spray method
[8] = test system: Plutella xylostella; assay: Insecticidal activity against Plutella xylostella (diamondback moth) larvae assessed as mortality at 250 ppm by leaf spray method
[9] = test system: Plutella xylostella; assay: Insecticidal activity against Plutella xylostella (diamondback moth) larvae assessed as mortality at 500 ppm by leaf spray method
[10] = test system: Laodelphax striatellus; assay: Insecticidal activity against Laodelphax striatella (small brown planthopper) larvae assessed as mortality at 250 ppm by leaf spray method
[11] = test system: Bombyx mori; assay: Insecticidal activity against Bombyx mori larvae assessed as mortality at 0.63 ug administered topically measured after 48 hr
[12] = test system: Tetranychus urticae; assay: Insecticidal activity against Tetranychus urticae (two-spotted spider mite) eggs assessed as mortality at 500 ppm by leaf spray method
[13] = test system: Laodelphax striatellus; assay: Insecticidal activity against Laodelphax striatella (small brown planthopper) larvae assessed as mortality at 1000 ppm by leaf spray method

Row | Structure (SMILES) | Activity [1] [%] | Activity [2] [%] | Activity [3] [%] | Activity [11] [%] | also measured
1 | CCCCCC/C=C/C(O)c1nc2ccccc2c(OC(C)=O)c1C (configuration not stated) | 0 | 10 | 85 | – | –
2 | CCCCCCC/C=C\c1nc2ccccc2c(OC(C)=O)c1C | 100 | 100 | 100 | 65 | Activity [4]: 100%; Activity [5]: 94%; Activity [6]: 100%; Activity [7]: 68.2%; Activity [8]: 100%; Activity [9]: 100%; Activity [10]: 76%; Activity [12]: 100%; Activity [13]: 100%
3 | CCCCC/C=C/C=C/c1nc2ccccc2c(O)c1C | 0 | 0 | 0 | – | –
4 | CCCCCC/C=C/Cc1nc2ccccc2c(OC(C)=O)c1C | 100 | 100 | 100 | 15 | –
5 | CCCCCCC/C=C/c1nc2ccccc2c(O)c1C | 0 | 0 | 0 | – | –
6 | CCCCC/C=C/C=C/c1nc2ccccc2c(OC(C)=O)c1C | 0 | 0 | 100 | – | –
7 | CCCCCC/C=C/C(O)c1nc2ccccc2c(O)c1C (configuration not stated) | 0 | 0 | 5 | – | –
8 | CCCCCCC/C=C/c1nc2ccccc2c(OC(C)=O)c1C | 100 | 100 | 100 | 0 | –
9 | CCCCCC/C=C/Cc1[nH]c2ccccc2c(=O)c1C | 0 | 0 | 20 | – | –
10 | CCCCCCC/C=C\c1nc2ccccc2c(O)c1C | 0 | 20 | 70 | – | –
